Data published in PubChem BioAssay AID248 (DTP/NCI, 2004).
Where “and” joins values, the source holds several entries; their conditions need not be identical. Identical values can stand only once. Inconclusive results and toxic doses are left out.

Tested on: L1210 leukemia ip in BDF1 mice, survival T/C
Experiment: NCI In Vivo Anticancer Drug Screen. Data for tumor model L1210 Leukemia (intraperitoneal) in B6D2F1 (BDF1) mice
Conditions: higher = longer survival
Summary of the method: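 Tumor cells were implanted, animals were treated, and survival was followed. The result divides the treated measurement by the vehicle-control measurement.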

[1] = endpoint: mean survival time, dose: 100.0 mg/kg/injection, schedule: Q01DX009 (ip), vehicle: saline with Tween-80
[2] = endpoint: mean survival time, dose: 200.0 mg/kg/injection, schedule: Q01DX009 (ip), vehicle: saline with Tween-80
[3] = endpoint: mean survival time, dose: 100.0 mg/kg/injection, schedule: Q01DX001 (ip), vehicle: saline
[4] = endpoint: mean survival time, dose: 200.0 mg/kg/injection, schedule: Q01DX001 (ip), vehicle: saline
[5] = endpoint: mean survival time, dose: 400.0 mg/kg/injection, schedule: Q01DX001 (ip), vehicle: saline
[6] = endpoint: mean survival time, dose: 100.0 mg/kg/injection, schedule: Q01DX009 (ip), vehicle: Klucel (hydroxypropylcellulose) (HPC)

Compound: O=c1[nH]cnc2nncnc12
- T/C (endpoint: mean survival time, dose: 50.0 mg/kg/injection, schedule: Q01DX001 (ip), vehicle: carboxymethylcellulose (CMC)): 93 % of control

Compound: CC1=CCC2C(C)(C)CCCC2(C)C1CO (stereo not given)
- T/C (endpoint: mean survival time, dose: 75.0 mg/kg/injection, schedule: Q01DX001 (ip), vehicle: saline): 98 % of control
- T/C (endpoint: mean survival time, dose: 150.0 mg/kg/injection, schedule: Q01DX001 (ip), vehicle: saline): 100 % of control
- T/C (endpoint: mean survival time, dose: 300.0 mg/kg/injection, schedule: Q01DX001 (ip), vehicle: saline): 95 % of control

Compound: COC(=O)c1cc(=O)n(C)c2ccc(OC)cc12
- T/C (endpoint: mean survival time, dose: 100.0 mg/kg/injection, schedule: Q01DX001 (ip), vehicle: saline with Tween-80): 101 % of control
- T/C (endpoint: mean survival time, dose: 200.0 mg/kg/injection, schedule: Q01DX001 (ip), vehicle: saline with Tween-80): 103 % of control
- T/C (endpoint: mean survival time, dose: 400.0 mg/kg/injection, schedule: Q01DX001 (ip), vehicle: saline with Tween-80): 109 % of control

Compound: Cc1c2ccncc2c(C)c2c1[nH]c1ccc(Cl)cc12
- T/C (endpoint: mean survival time, dose: 37.5 mg/kg/injection, schedule: Q01DX001 (oral), vehicle: saline with Tween-80): 102 % of control
- T/C (endpoint: mean survival time, dose: 50.0 mg/kg/injection, schedule: Q01DX009 (ip), vehicle: saline with Tween-80): 96 % of control
- T/C (endpoint: mean survival time, dose: 50.0 mg/kg/injection, schedule: Q04DX003 (ip), vehicle: saline with Tween-80): 104 % of control
- T/C (endpoint: mean survival time, dose: 75.0 mg/kg/injection, schedule: Q01DX001 (oral), vehicle: saline with Tween-80): 103 % of control
- T/C [1]: 94 % of control
- T/C (endpoint: mean survival time, dose: 100.0 mg/kg/injection, schedule: Q04DX003 (ip), vehicle: saline with Tween-80): 98 % of control
- T/C (endpoint: mean survival time, dose: 150.0 mg/kg/injection, schedule: Q01DX001 (oral), vehicle: saline with Tween-80): 97 % of control
- T/C (endpoint: mean survival time, dose: 200.0 mg/kg/injection, schedule: Q01DX001 (oral), vehicle: saline with Tween-80): 108 % of control
- T/C [2]: 92 % of control
- T/C (endpoint: mean survival time, dose: 200.0 mg/kg/injection, schedule: Q04DX003 (ip), vehicle: saline with Tween-80): 90 % of control
- T/C (endpoint: mean survival time, dose: 400.0 mg/kg/injection, schedule: Q01DX001 (oral), vehicle: saline with Tween-80): 107 % of control
- T/C (endpoint: mean survival time, dose: 800.0 mg/kg/injection, schedule: Q01DX001 (oral), vehicle: saline with Tween-80): 113 % of control

Compound: CC(C)(C)CC(=O)CC(C)(C)C
- T/C [3]: 98 % of control
- T/C [4]: 87 % of control
- T/C [5]: 98 % of control

Compound: O=C(Nc1cccc(F)c1)Nc1nccs1
- T/C (endpoint: mean survival time, dose: 25.0 mg/kg/injection, schedule: Q01DX009 (ip), vehicle: Klucel (hydroxypropylcellulose) (HPC)): 89 % of control
- T/C (endpoint: mean survival time, dose: 50.0 mg/kg/injection, schedule: Q01DX009 (ip), vehicle: Klucel (hydroxypropylcellulose) (HPC)): 99 % of control
- T/C [6]: 95 % of control and 97 % of control

Compound: CC1=CS(=O)(=O)CC(=O)N1
- T/C [1]: 101 % of control
- T/C [2]: 100 % of control
- T/C (endpoint: mean survival time, dose: 400.0 mg/kg/injection, schedule: Q01DX009 (ip), vehicle: saline with Tween-80): 97 % of control

Compound: CCCCN(C)N=Nc1ccc(CCC(=O)OCC)cc1
- T/C (endpoint: mean survival time, dose: 72.5 mg/kg/injection, schedule: Q01DX009 (ip), vehicle: saline with Tween-80): 121 % of control
- T/C (endpoint: mean survival time, dose: 177.0 mg/kg/injection, schedule: Q01DX009 (ip), vehicle: other): 117 % of control
- T/C (endpoint: mean survival time, dose: 187.0 mg/kg/injection, schedule: Q01DX Z (ip), vehicle: saline): 117 % of control
- T/C (endpoint: mean survival time, dose: 207.0 mg/kg/injection, schedule: Q01DX001 (ip), vehicle: saline with Tween-80): 111 % of control
- T/C (endpoint: mean survival time, dose: 266.0 mg/kg/injection, schedule: Q01DX007 (ip), vehicle: saline): 160 % of control
- T/C (endpoint: mean survival time, dose: 290.0 mg/kg/injection, schedule: Q01DX009 (ip), vehicle: saline with Tween-80): 171 % of control
- T/C (endpoint: mean survival time, dose: 400.0 mg/kg/injection, schedule: Q01DX007 (ip), vehicle: saline): 171 % of control
- T/C (endpoint: mean survival time, dose: 400.0 mg/kg/injection, schedule: Q01DX009 (ip), vehicle: other): 162 % of control
- T/C (endpoint: mean survival time, dose: 414.5 mg/kg/injection, schedule: Q01DX001 (ip), vehicle: saline with Tween-80): 119 % of control
- T/C (endpoint: mean survival time, dose: 600.0 mg/kg/injection, schedule: Q01DX009 (ip), vehicle: other): 179 % of control
- T/C (endpoint: median survival time, dose: 200.0 mg/kg/injection, schedule: Q04DX003 (ip), vehicle: Klucel (hydroxypropylcellulose) (HPC)): 111 % of control
- T/C (endpoint: median survival time, dose: 800.0 mg/kg/injection, schedule: Q01DX009 (ip), vehicle: saline): 187 % of control

Compound: CC(C(=O)O)(c1c[nH]c2ccccc12)c1c[nH]c2ccccc12
- T/C (endpoint: mean survival time, dose: 50.0 mg/kg/injection, schedule: Q01DX001 (ip), vehicle: saline): 106 % of control
- T/C [3]: 103 % of control
- T/C [4]: 92 % of control
- T/C [5]: 86 % of control

Compound: OCc1cc(-c2ccc(Cl)cc2)nc2c(C(F)(F)F)cccc12
- T/C [6]: 108 % of control
- T/C (endpoint: mean survival time, dose: 100.0 mg/kg/injection, schedule: Q04DX003 (ip), vehicle: Klucel (hydroxypropylcellulose) (HPC)): 102 % of control
- T/C (endpoint: mean survival time, dose: 200.0 mg/kg/injection, schedule: Q01DX009 (ip), vehicle: Klucel (hydroxypropylcellulose) (HPC)): 111 % of control
- T/C (endpoint: mean survival time, dose: 200.0 mg/kg/injection, schedule: Q04DX003 (ip), vehicle: Klucel (hydroxypropylcellulose) (HPC)): 104 % of control
- T/C (endpoint: mean survival time, dose: 400.0 mg/kg/injection, schedule: Q01DX009 (ip), vehicle: Klucel (hydroxypropylcellulose) (HPC)): 109 % of control
- T/C (endpoint: mean survival time, dose: 400.0 mg/kg/injection, schedule: Q04DX003 (ip), vehicle: Klucel (hydroxypropylcellulose) (HPC)): 102 % of control
